Structures are written as SMILES.

The target of one assay is T1, human TLR7 (Homo sapiens, UniProt Q9NYK1).
T1 construct: host or cells: HEK293 (HEK-Blue hTLR7)
T1 sequence (Q9NYK1 27-1049): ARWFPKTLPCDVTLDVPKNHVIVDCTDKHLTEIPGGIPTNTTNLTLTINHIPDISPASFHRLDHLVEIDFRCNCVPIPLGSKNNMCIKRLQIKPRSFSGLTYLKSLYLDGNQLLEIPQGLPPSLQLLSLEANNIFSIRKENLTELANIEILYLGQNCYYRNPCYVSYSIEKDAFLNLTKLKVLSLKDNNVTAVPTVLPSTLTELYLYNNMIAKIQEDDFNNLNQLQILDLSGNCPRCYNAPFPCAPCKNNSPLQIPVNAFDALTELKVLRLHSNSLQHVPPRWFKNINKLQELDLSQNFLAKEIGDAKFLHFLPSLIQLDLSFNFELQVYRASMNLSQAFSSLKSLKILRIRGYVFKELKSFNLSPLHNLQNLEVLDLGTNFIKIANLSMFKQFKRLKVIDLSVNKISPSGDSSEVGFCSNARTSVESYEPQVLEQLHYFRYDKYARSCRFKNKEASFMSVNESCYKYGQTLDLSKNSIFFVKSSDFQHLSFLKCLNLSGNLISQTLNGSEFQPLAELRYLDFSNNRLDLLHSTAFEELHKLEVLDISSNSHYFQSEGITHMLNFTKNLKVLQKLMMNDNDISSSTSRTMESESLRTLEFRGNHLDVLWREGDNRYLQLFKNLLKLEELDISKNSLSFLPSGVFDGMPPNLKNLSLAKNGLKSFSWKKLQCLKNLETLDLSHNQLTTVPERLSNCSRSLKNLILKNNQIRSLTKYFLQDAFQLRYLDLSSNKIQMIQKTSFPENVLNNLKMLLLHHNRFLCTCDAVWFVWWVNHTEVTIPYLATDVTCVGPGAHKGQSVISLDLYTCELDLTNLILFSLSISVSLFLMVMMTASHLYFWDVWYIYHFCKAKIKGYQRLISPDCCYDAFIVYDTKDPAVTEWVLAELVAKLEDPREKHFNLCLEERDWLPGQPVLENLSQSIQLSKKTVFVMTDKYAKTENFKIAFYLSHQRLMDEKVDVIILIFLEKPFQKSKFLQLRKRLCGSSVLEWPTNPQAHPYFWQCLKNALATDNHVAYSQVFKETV
Put plainly: HEK293-Blue-hTLR-7 cells assay. Format: cell-based. The conditions noted are these: HEK293-Blue-hTLR7 cells, R848 stimulation, 20 hrs, SEAP reporter; read-out: HEK/hTLR7 IC50.

The target in a further assay is T2, human TLR8 (Homo sapiens, UniProt Q9NR97).
T2 sequence (Q9NR97 27-1041): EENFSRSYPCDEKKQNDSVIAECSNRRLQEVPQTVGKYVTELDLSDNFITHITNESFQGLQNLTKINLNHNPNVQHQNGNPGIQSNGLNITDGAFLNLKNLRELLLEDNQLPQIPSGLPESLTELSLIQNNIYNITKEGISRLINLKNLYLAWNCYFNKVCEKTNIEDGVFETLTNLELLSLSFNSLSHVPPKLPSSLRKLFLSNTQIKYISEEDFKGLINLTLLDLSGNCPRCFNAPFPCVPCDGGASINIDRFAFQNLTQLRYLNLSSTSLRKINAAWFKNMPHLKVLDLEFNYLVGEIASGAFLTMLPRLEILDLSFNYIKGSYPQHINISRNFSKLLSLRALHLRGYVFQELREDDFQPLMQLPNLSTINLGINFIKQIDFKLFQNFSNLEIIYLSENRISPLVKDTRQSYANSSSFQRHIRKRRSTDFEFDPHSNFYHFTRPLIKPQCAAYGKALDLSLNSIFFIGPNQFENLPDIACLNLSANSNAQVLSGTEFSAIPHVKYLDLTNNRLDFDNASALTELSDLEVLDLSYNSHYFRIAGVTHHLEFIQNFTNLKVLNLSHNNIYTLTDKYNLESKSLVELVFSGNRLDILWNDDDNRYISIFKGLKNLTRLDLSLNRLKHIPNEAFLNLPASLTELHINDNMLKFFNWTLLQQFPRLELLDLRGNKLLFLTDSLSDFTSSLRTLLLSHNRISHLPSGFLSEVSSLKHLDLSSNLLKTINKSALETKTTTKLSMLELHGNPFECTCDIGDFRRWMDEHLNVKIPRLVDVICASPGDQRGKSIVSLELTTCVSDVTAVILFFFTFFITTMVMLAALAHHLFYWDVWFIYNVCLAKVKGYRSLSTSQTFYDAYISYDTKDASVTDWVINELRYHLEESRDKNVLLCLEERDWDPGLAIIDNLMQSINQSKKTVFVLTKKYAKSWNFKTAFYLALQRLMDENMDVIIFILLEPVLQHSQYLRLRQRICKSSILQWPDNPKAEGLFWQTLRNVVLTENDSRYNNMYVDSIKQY
Description: HEK293-Blue-hTLR-8 cells assay.

On to `[2H]c1ccc2c(N3C[C@@H]4CN(c5ncc(N6C[C@@H]7C[C@H]6CN7)cc5C)CCN4[C@H](C)C3)ccc(C#N)c2n1` [Example 95, 5-[(4R,9aR)-8-[5-[(1S,4S)-2,5-diazabicyclo[2.2.1]heptan-2-yl]-3-methyl-2-pyridyl]-4-methyl-3,4,6,7,9,9a-hexahydro-1H-pyrazino[1,2-a]pyrazin-2-yl]-2-deuterio-quinoline-8-carbonitrile], for which the figures for the IC50 at human TLR7 and against human TLR8 were 2 nM and 6 nM, respectively.

With `[2H]c1ccc2c(N3C[C@@H]4CN(c5ncc(N6C[C@H]7NCCO[C@@H]7C6)cc5C)CCN4[C@H](C)C3)ccc(C#N)c2n1` [Example 100, 5-[(4R,9aR)-8-[5-[(4aR,7aR)-3,4,4a,5,7,7a-hexahydro-2H-pyrrolo[3,4-b][1,4]oxazin-6-yl]-3-methyl-2-pyridyl]-4-methyl-3,4,6,7,9,9a-hexahydro-1H-pyrazino[1,2-a]pyrazin-2-yl]-2-deuterio-quinoline-8-carbonitrile], the figures for the IC50 at human TLR7 and at human TLR8 were 1 nM and 3 nM, respectively.

For `[2H]c1ccc2c(N3C[C@@H]4CN(c5ncc(N6C[C@@H](N)[C@@H](OC)C6)cc5C)CCN4[C@H](C)C3)ccc(C#N)c2n1` [Example 96, 5-[(4R,9aR)-8-[5-[(3R,4S)-3-amino-4-methoxy-pyrrolidin-1-yl]-3-methyl-2-pyridyl]-4-methyl-3,4,6,7,9,9a-hexahydro-1H-pyrazino[1,2-a]pyrazin-2-yl]-2-deuterio-quinoline-8-carbonitrile], the IC50 on human TLR7 worked out at 2 nM; at human TLR8, 5 nM.

Turning to `[2H]c1ccc2c(N3C[C@@H]4CN(Cc5ccc(N6C[C@H]7NCCO[C@@H]7C6)nc5C)CCN4[C@H](C)C3)ccc(C#N)c2n1` [Example 98, 5-[(4R,9aS)-8-[[6-[(4aR,7aR)-3,4,4a,5,7,7a-hexahydro-2H-pyrrolo[3,4-b][1,4]oxazin-6-yl]-2-methyl-3-pyridyl]methyl]-4-methyl-3,4,6,7,9,9a-hexahydro-1H-pyrazino[1,2-a]pyrazin-2-yl]-2-deuterio-quinoline-8-carbonitrile], the IC50 on human TLR7 turned out to be 24 nM; against human TLR8 it was 10 nM.

For `[2H]c1ccc2c(N3C[C@@H]4CN(Cc5ccc(N6CC7CNCC(C6)O7)nc5C)CCN4[C@H](C)C3)ccc(C#N)c2n1` [Example 83, 5-[(4R,9aS)-4-methyl-8-[[2-methyl-6-(9-oxa-3,7-diazabicyclo[3.3.1]nonan-3-yl)-3-pyridyl]methyl]-3,4,6,7,9,9a-hexahydro-1H-pyrazino[1,2-a]pyrazin-2-yl]-2-deuterio-quinoline-8-carbonitrile], the results for the IC50 on human TLR7 and on human TLR8 were 17 nM and 7 nM, respectively.

`[2H]c1ccc2c(N3C[C@@H]4CN(Cc5cnc(N6C[C@@H]7C[C@H]6CN7)cc5C)CCN4[C@H](C)C3)ccc(C#N)c2n1` [Example 94, 5-[(4R,9aS)-8-[[6-[(1S,4S)-2,5-diazabicyclo[2.2.1]heptan-2-yl]-4-methyl-3-pyridyl]methyl]-4-methyl-3,4,6,7,9,9a-hexahydro-1H-pyrazino[1,2-a]pyrazin-2-yl]-2-deuterio-quinoline-8-carbonitrile]: the IC50 on human TLR7 is 25 nM; at human TLR8, 8 nM.

In the case of `Cc1cc(N2CCNCC2)cnc1N1CCN2[C@@H](C1)CN(c1cc(=O)n(C)c3ncccc13)C[C@H]2C` [Example 93, 4-[(4R,9aR)-4-methyl-8-(3-methyl-5-piperazin-1-yl-2-pyridyl)-3,4,6,7,9,9a-hexahydro-1H-pyrazino[1,2-a]pyrazin-2-yl]-1-methyl-1,8-naphthyridin-2-one], the IC50 on human TLR7 was 10 nM; against human TLR8 it was 61 nM.

As to `[2H]c1ccc2c(N3C[C@@H]4CN(Cc5cnc(N6CCNCC6)cc5C)CCN4[C@H](C)C3)ccc(C#N)c2n1` [Example 87, 5-[(4R,9aS)-4-methyl-8-[(4-methyl-6-piperazin-1-yl-3-pyridyl)methyl]-3,4,6,7,9,9a-hexahydro-1H-pyrazino[1,2-a]pyrazin-2-yl]-2-deuterio-quinoline-8-carbonitrile], the IC50 at human TLR7 turned out to be 17 nM; against human TLR8, 15 nM.

For the origin of these results see patent US20220340597A1, “HEXAHYDRO-1H-PYRAZINO[1,2-A]PYRAZINE COMPOUNDS FOR THE TREATMENT OF AUTOIMMUNE DISEASE” (Hoffmann-La Roche Inc., priority 2019, published 2022).
